Laboratory results reported in patent US20060263802A1 (priority 2003, published 2006).

Legend:
Format in all cases: binding
[1] = system: human monoclonal antibody CRJA
[2] = system: human monoclonal antibody CRJA; remark: listed apart in the source
[3] = system: human monoclonal antibody CR57
[4] = system: human monoclonal antibody CRJB
[5] = system: human monoclonal antibody CRJB; remark: listed apart in the source
[6] = system: human monoclonal antibody CR57; remark: listed apart in the source

Sequence	Binding of CRJA (10 μg/ml) to looped/cyclic peptide (PEPSCAN-ELISA signal) [1]	Binding of CRJA to linear peptide (PEPSCAN-ELISA signal) [2]	Binding of CR57 (10 μg/ml) to looped/cyclic peptide (PEPSCAN-ELISA signal) [3]	Binding of CRJB to linear peptide (PEPSCAN-ELISA signal) [4]	Binding of CRJB (10 μg/ml) to looped/cyclic peptide (PEPSCAN-ELISA signal) [5]	Binding of CR57 to linear peptide (PEPSCAN-ELISA signal) [6]	Binding of CRJA (10 μg/ml) to looped/cyclic peptide (PEPSCAN-ELISA) [1]	Binding of CR57 (10 μg/ml) to looped/cyclic peptide (PEPSCAN-ELISA) [3]	Binding of CRJB (10 μg/ml) to looped/cyclic peptide (PEPSCAN-ELISA) [5]	Binding of CRJA to looped/cyclic peptide (PEPSCAN-ELISA signal) [1]	Binding of human monoclonal antibody CRJA to linear peptide (PEPSCAN-ELISA signal) [2]	Binding of CR57 to looped/cyclic peptide (PEPSCAN-ELISA signal) [3]	Binding of human monoclonal antibody CRJB to linear peptide (PEPSCAN-ELISA signal) [4]	Binding of CRJB to looped/cyclic peptide (PEPSCAN-ELISA signal) [5]	Binding of human monoclonal antibody CR57 to linear peptide (PEPSCAN-ELISA signal) [6]
PENPRLGMSCDIFTN	83	94	116	111	98	83	–	–	–	–	–	–	–	–	–
STNHDYTIWMPENPR	51	77	72	112	74	60	–	–	–	–	–	–	–	–	–
AVSSTYCSTNHDYTI	91	102	129	105	79	71	–	–	–	–	–	–	–	–	–
HHLSCPNNLVVEDEG	96	72	66	76	58	56	–	–	–	–	–	–	–	–	–
ADAHYKSVRTWNEIL	–	93	–	100	–	56	90	69	82	–	–	–	–	–	–
EESLHNPYPDYRWLR	100	85	121	123	85	76	–	–	–	–	–	–	–	–	–
LGMSCDIFTNSRGKR	104	100	102	110	105	76	–	–	–	–	–	–	–	–	–
GYILAIKMNGFTCTG	72	73	87	90	61	75	–	–	–	–	–	–	–	–	–
NGIILGPDGNVLIPE	–	89	–	146	–	102	85	104	85	–	–	–	–	–	–
KREECLDALESIMTT	–	83	–	113	–	102	100	137	64	–	–	–	–	–	–
FPIYTILDKLGPWSP	57	88	65	105	63	42	–	–	–	–	–	–	–	–	–
NLSGFSYMELKVGYI	90	94	68	115	83	61	–	–	–	–	–	–	–	–	–
EDFVEVHLPDVHNQV	–	–	–	–	–	–	–	–	–	104	114	117	141	89	90
NPYPDYRWLRTVKTT	84	106	89	102	92	85	–	–	–	–	–	–	–	–	–
VFPSGKCSGVAVSST	55	68	79	114	75	74	–	–	–	–	–	–	–	–	–
VVEDEGCTNLSGFSY	68	63	79	107	66	73	–	–	–	–	–	–	–	–	–
YVTTTFKRKHFRPTP	137	84	146	106	111	85	–	–	–	–	–	–	–	–	–
ALESIMTTKSVSFRR	–	107	–	132	–	97	108	136	111	–	–	–	–	–	–
